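Method: 48-hour compound exposure of cells in 96-well plates, five concentrations, linear interpolation of endpoints. GI50 marks 50% less growth.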 Activity calls are given as the source filed them. No stated cut-off is given here; in the data, active = GI50 up to about 1.1 µM and inactive = higher.
Key:
Assay in all cases: DTP human tumour cell line panel, 48 h
SW-620 = test system: SW-620
OVCAR-3 = test system: OVCAR-3
RXF 393 = test system: RXF 393
MOLT-4 = test system: MOLT-4
EKVX = test system: EKVX
OVCAR-4 = test system: OVCAR-4
SNB-75 = test system: SNB-75
SK-MEL-5 = test system: SK-MEL-5
SR = test system: SR
SK-MEL-2 = test system: SK-MEL-2
LOX IMVI = test system: LOX IMVI
MDA-MB-231 = test system: MDA-MB-231
HCT-116 = test system: HCT-116
MCF7 = test system: MCF7
KM12 = test system: KM12
HL-60 = test system: HL-60
MDA-MB-435 = test system: MDA-MB-435
TK-10 = test system: TK-10
UACC-257 = test system: UACC-257
HOP-92 = test system: HOP-92

Measured: GI50

CCOC(=O)c1ccc(C(=O)/C(C#N)=C2\CCCN2)n1C
inactive: SW-620 > 100 µM | OVCAR-3 68.4 µM | RXF 393 25.7 µM | MOLT-4 13.6 µM | EKVX > 100 µM | OVCAR-4 > 100 µM | SNB-75 24.7 µM | SK-MEL-5 33.6 µM | SR 31 µM | SK-MEL-2 > 100 µM | LOX IMVI 86.5 µM | MDA-MB-231 > 100 µM | HCT-116 > 100 µM | MCF7 40.4 µM | KM12 > 100 µM | HL-60 34.2 µM | MDA-MB-435 31.2 µM

C=CC1CCC[N+]1(CC(=O)OCC)Cc1ccccc1 (centres undefined)
inactive: SW-620 > 100 µM | TK-10 > 100 µM | OVCAR-3 > 100 µM | UACC-257 > 100 µM | MOLT-4 > 100 µM | EKVX > 100 µM | OVCAR-4 > 100 µM | SNB-75 > 100 µM | SK-MEL-5 > 100 µM | SR > 100 µM | MDA-MB-231 > 100 µM | HCT-116 > 100 µM | MCF7 > 100 µM | HL-60 > 100 µM | HOP-92 > 100 µM | MDA-MB-435 > 100 µM

CCOC(=O)c1c(-c2ccccc2)nc2c(OC)nccn12
inactive: SW-620 > 100 µM | TK-10 60.5 µM | OVCAR-3 > 100 µM | RXF 393 15.4 µM | UACC-257 > 100 µM | MOLT-4 14.5 µM | EKVX > 100 µM | OVCAR-4 > 100 µM | SNB-75 > 100 µM | SK-MEL-5 61.1 µM | SR > 100 µM | SK-MEL-2 > 100 µM | LOX IMVI > 100 µM | MDA-MB-231 > 100 µM | HCT-116 > 100 µM | MCF7 > 100 µM | KM12 > 100 µM | HL-60 > 100 µM | MDA-MB-435 > 100 µM

Cc1ccc(C2SCC(=O)N2c2ccc(-c3ccc(-n4c(-c5ccccc5)nc5ccccc5c4=O)cc3)cc2)cc1 (centres undefined)
inactive: SW-620 > 100 µM | TK-10 > 100 µM | OVCAR-3 > 100 µM | UACC-257 > 100 µM | MOLT-4 34.5 µM | EKVX 53.3 µM | OVCAR-4 51.3 µM | SK-MEL-5 41.1 µM | SR 36.4 µM | SK-MEL-2 > 100 µM | LOX IMVI 54.1 µM | MDA-MB-231 92.9 µM | MCF7 > 100 µM | KM12 55.8 µM | HL-60 31 µM | HOP-92 35 µM | MDA-MB-435 88.3 µM

O=C(O)CCCn1nnc2c(=O)[nH][nH]c(=O)c21
inactive: TK-10 > 100 µM | OVCAR-3 > 100 µM | UACC-257 > 100 µM | MOLT-4 > 100 µM | EKVX > 100 µM | OVCAR-4 > 100 µM | SK-MEL-5 > 100 µM | SR > 100 µM | SK-MEL-2 > 100 µM | LOX IMVI > 100 µM | MDA-MB-231 > 100 µM | HCT-116 > 100 µM | MCF7 > 100 µM | KM12 > 100 µM | HL-60 > 100 µM | HOP-92 > 100 µM | MDA-MB-435 > 100 µM

Cc1ncc([N+](=O)[O-])n1CCN(C)C(=O)CCCn1ccnc1[N+](=O)[O-]
inactive: SW-620 > 100 µM | TK-10 > 100 µM | OVCAR-3 > 100 µM | RXF 393 > 100 µM | UACC-257 > 100 µM | MOLT-4 > 100 µM | EKVX > 100 µM | OVCAR-4 > 100 µM | SNB-75 > 100 µM | SK-MEL-5 > 100 µM | SR > 100 µM | SK-MEL-2 > 100 µM | LOX IMVI > 100 µM | MDA-MB-231 > 100 µM | HCT-116 > 100 µM | MCF7 > 100 µM | KM12 > 100 µM | HL-60 > 100 µM | MDA-MB-435 > 100 µM

Cn1c(-c2ccc(-c3cc(-c4cccs4)c(-c4cccs4)n3C)cc2)cc(-c2cccs2)c1-c1cccs1
inactive: SW-620 > 100 µM | TK-10 > 100 µM | RXF 393 > 100 µM | UACC-257 > 100 µM | MOLT-4 > 100 µM | EKVX > 100 µM | OVCAR-4 > 100 µM | SNB-75 > 100 µM | SK-MEL-5 > 100 µM | SR > 100 µM | SK-MEL-2 > 100 µM | MDA-MB-231 > 100 µM | HCT-116 > 100 µM | MCF7 > 100 µM | KM12 > 100 µM | HL-60 > 100 µM | MDA-MB-435 > 100 µM

COc1ccc(-c2nc3ncccn3c2-c2ccc(S(C)(=O)=O)cc2)cc1
inactive: SW-620 > 100 µM | OVCAR-3 75.7 µM | UACC-257 > 100 µM | MOLT-4 > 100 µM | OVCAR-4 > 100 µM | SNB-75 > 100 µM | SK-MEL-5 48.2 µM | SR 47.6 µM | SK-MEL-2 > 100 µM | LOX IMVI > 100 µM | MDA-MB-231 > 100 µM | HCT-116 > 100 µM | MCF7 22.3 µM | KM12 > 100 µM | HL-60 > 100 µM | HOP-92 14.1 µM | MDA-MB-435 38 µM
